Results: ChEMBL document CHEMBL4828727, “Antibacterial and antitumoral properties of 1,2,3-triazolo fused triterpenes and their mechanism of inhibiting the proliferation of HL-60 cells” (Eur J Med Chem, 2021)
Calls of active or inactive are those of the source. The rule behind the calls is not given here.

Key:
[1] = test system: LN-229; test: Antiproliferative activity against human LN-229 cells assessed as inhibition of cell viability measured after 72 hrs by colorimetric MTS viability assay; assay type: functional, cell-based; settings: LN-229, 72 h
[2] = test system: HL-60; test: Cell cycle arrest in human HL-60 cells assessed as increase in accumulation in G0/G1 phase at 8 uM incubated for 48 hrs by propidium iodide staining based flow cytometric analysis (reference value: 64.97%); assay type: functional
[3] = Antiproliferative activity against human DND41 cells assessed as inhibition of cell viability measured after 72 hrs by real-time IncuCyte proliferation analysis; assay type: functional, cell-based; settings: DND41, 72 h
[4] = test system: HL-60; test: Induction of apoptosis in human HL-60 cells assessed as live cells at 6 uM after 48 hrs by Annexin V-PE/7-AAD dual staining based flow cytometry (reference value: 90.1 to 90.7%); assay type: functional
[5] = test system: NCI-H460; test: cells; assay type: functional, cell-based; settings: Homo sapiens, NCI-H460, 72 h
Description: Antiproliferative activity against human NCI-H460 cells assessed as inhibition of cell viability measured after 72 hrs by colorimetric MTS viability assay

[6] = test system: HL-60; test: Induction of apoptosis in human HL-60 cells assessed as late apoptotic cells at 10 uM in presence of 3-MA after 48 hrs by Annexin V-PE/7-AAD dual staining based flow cytometry (reference value: 3.12%); assay type: functional
[7] = test system: K562; test: cells; assay type: functional, cell-based; settings: Homo sapiens, K562, 72 h
Description: Antiproliferative activity against human K562 cells assessed as inhibition of cell viability measured after 72 hrs by real-time IncuCyte proliferation analysis

[8] = test system: HL-60; test: Induction of apoptosis in human HL-60 cells assessed as early apoptotic cells at 6 uM in presence of 3-MA after 48 hrs by Annexin V-PE/7-AAD dual staining based flow cytometry (reference value: 3.14%); assay type: functional
[9] = test system: HL-60; test: Induction of apoptosis in human HL-60 cells assessed as necrotic cells at 8 uM after 48 hrs by Annexin V-PE and 7AAD based flow cytometry (reference value: 2.64 to 3.64%); assay type: functional
[10] = test system: HL-60; test: Induction of apoptosis in human HL-60 cells assessed as live cells at 10 uM in presence of 3-MA after 48 hrs by Annexin V-PE/7-AAD dual staining based flow cytometry (reference value: 91.1%); assay type: functional
[11] = test system: HL-60; test: Induction of apoptosis in human HL-60 cells assessed as late apoptotic cells at 10 uM after 48 hrs by Annexin V-PE/7-AAD dual staining based flow cytometry (reference value: 3.93%); assay type: functional
[12] = test system: Jurkat; test: cells; assay type: functional, cell-based; settings: Homo sapiens, 72 h
Description: Cytotoxicity against human Jurkat cells assessed as inhibition of cell viability measured after 72 hrs by real-time IncuCyte proliferation analysis

[13] = test system: HL-60; test: Induction of apoptosis in human HL-60 cells assessed as live cells at 8 uM in presence of 3-MA after 48 hrs by Annexin V-PE/7-AAD dual staining based flow cytometry (reference value: 91.1%); assay type: functional
[14] = test system: HL-60; test: Induction of autophagy in human HL-60 cells assessed as fold increase in MDC fluorescence intensity at 6 uM measured after 48 hrs by flow cytometry relative to control; assay type: functional
[15] = test system: HL-60; test: Induction of autophagy in human HL-60 cells assessed as fold increase in MDC fluorescence intensity at 8 uM measured after 48 hrs by flow cytometry relative to control; assay type: functional
[16] = test system: HL-60; test: Induction of apoptosis in human HL-60 cells assessed as late apoptotic cells at 8 uM after 48 hrs by Annexin V-PE/7-AAD dual staining based flow cytometry (Rvb =3.93%); assay type: functional
[17] = test system: HL-60; test: Induction of apoptosis in human HL-60 cells assessed as necrotic cells at 10 uM in presence of 3-MA after 48 hrs by Annexin V-PE/7-AAD dual staining based flow cytometry (reference value: 2.62%); assay type: functional
[18] = test system: MV4-11; test: cells; assay type: functional, cell-based; settings: Homo sapiens, MV4-11, 72 h
Description: Cytotoxicity against human MV4-11cells assessed as inhibition of cell viability measured after 72 hrs by real-time IncuCyte proliferation analysis

[19] = test system: HL-60; test: Cell cycle arrest in human HL-60 cells assessed as accumulation of cells at G2/M phase at 8 uM incubated for 48 hrs by propidium iodide based flow cytometric analysis (reference value: 6.61%); assay type: functional
[20] = test system: Salmonella enterica subsp. enterica; test: Antibacterial activity against Salmonella enterica subsp.enterica ATCC13076 assessed as growth inhibition after 20 hrs by broth microdilution method; assay type: functional

IC50 [5]: 12.5 µM
IC50 [7]: 80.7 µM
IC50 [12]: 8.7 µM
IC50 [18]: 12.8 µM
MIC50 [20]: inactive
Structure (SMILES): COc1ccc2[nH]cc(CCn3nnc4c3C(C)(C)[C@@H]3CC[C@]5(C)[C@H](CC=C6[C@@H]7CC(C)(C)CC[C@]7(C(=O)O)CC[C@]65C)[C@@]3(C)C4)c2c1
IC50 [1]: 44.1 µM
Activity [2]: 73.3%
IC50 [3]: 7.2 µM
Activity [4]: 80%
Activity [6]: 30.8%
Activity [8]: 3.91%
Activity [9]: 0.415%
Activity [10]: 54.2%
Activity [11]: 63.2%
Activity [13]: 68.9%
fold change (FC) [14]: 1.49
fold change (FC) [15]: 1.72
Activity [16]: 34.3%
Activity [17]: 0.317%
Activity [19]: 5.02%
